Key:
[1] = biological target: T1, Ba/F3 cells transformed with human Tel-TrkA (Homo sapiens, UniProt P04629); test: Proliferation of Ba/F3 cells transformed with human Tel-TrkA (Ba/F3 Tel-TrkA); format: cell-based; settings: Table 1; 48 hours, Bright Glo luminescence; read-out: Ba/F3 Tel-TrkA
T1 construct: expressed in transfected cells; host or cells: Ba/F3 murine hematopoietic progenitor cells (luciferase expressing); the other entry of the earlier key: ETV6 (P41212, Transcription factor ETV6)
T1 sequence (P04629 510-796 limits assumed): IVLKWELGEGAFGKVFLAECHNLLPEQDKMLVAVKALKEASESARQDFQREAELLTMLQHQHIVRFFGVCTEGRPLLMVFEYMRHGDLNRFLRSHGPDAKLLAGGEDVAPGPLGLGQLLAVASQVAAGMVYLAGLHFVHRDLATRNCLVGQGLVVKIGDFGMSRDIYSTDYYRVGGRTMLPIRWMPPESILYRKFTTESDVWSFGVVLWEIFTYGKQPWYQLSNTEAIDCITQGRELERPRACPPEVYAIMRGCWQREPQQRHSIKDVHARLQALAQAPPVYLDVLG
Text: (§1) Compound dilutions were made in 384 well plates.
(§2) The emited luminiscence is quantified using ViewLux (PerkinElmer).

parental Ba/F3 cells = test: Proliferation of parental (untransformed, wt) Ba/F3 cells (BAF3/WT); format: cell-based, murine; settings: Mus musculus, Table 1, parental cells with IL3, 48 hours
Protocol: as §1
Compounds were tested for their ability to inhibit the proliferation of wt Ba/F3 cells and Ba/F3 cells transformed with constitutively expressed luciferase reporter and BCR-ABL or Tel-FMS or other Tel fusion kinases (EGFR, JAK2, ALK, BMX, FGFR3, FGFR4, FGR2, FLT1, FLT3, IGF1R, INSR, KDR, KIT, LCK, LYN, MEK, MET, PDGFRα, PDGFRβ, RET, RON, ROS, SRC, SYK, TIE and TYRO) or BRafV600E. Parental Ba/F3 cells were maintained in media containing recombinant mouse IL3 and the kinase transformed Ba/F3 cells were maintained in media without IL-3. 7.5 nl of compounds were spotted to each well of 1536-well assay plates by Liquid handling System Echo 555 (Labcyte). 700 cells were then plated into each well of the assay plates in 7 uL culture media per well and compounds were tested at 0.17 nM to 10 uM in 3-fold serial dilutions. The cells were then incubated for 48 hours at 37° C. 3 uL of Bright-Glo® (Promega) was added to each well and the plates were read using ViewLux (PerkinElmer).
as §2

IC50 [1] | Structure (SMILES) | IC50 (parental Ba/F3 cells)
0.127 µM | CC(NC(=O)c1cnc2ccc(N3CCC[C@@H]3c3cccc(F)c3)nn12)c1ccc(F)cc1 (some centres unmarked) [X-42] | > 9.57 µM
0.046 µM | CNC(=O)c1cnc2ccc(N3CCC[C@@H]3c3cccc(F)c3)nn12 [X-43] | > 10 µM
0.011 µM | O=C(NC1CC1)c1cnc2ccc(N3CCC[C@@H]3c3cccc(F)c3)nn12 [X-44] | > 10 µM
0.022 µM | CC(C)(C)NC(=O)c1cnc2ccc(N3CCC[C@@H]3c3cccc(F)c3)nn12 [X-45] | > 10 µM
0.02 µM | O=C(NC1CCC1)c1cnc2ccc(N3CCC[C@@H]3c3cccc(F)c3)nn12 [X-46] | > 10 µM
0.07 µM | O=C(NCc1ccc(F)cc1)c1cnc2ccc(N3CCC[C@@H]3c3cccc(F)c3)nn12 [X-47] | > 10 µM
0.037 µM | O=C(NC1CCCC1)c1cnc2ccc(N3CCC[C@@H]3c3cccc(F)c3)nn12 [X-48] | > 10 µM
0.022 µM | O=C(NC1CCCCC1)c1cnc2ccc(N3CCC[C@@H]3c3cccc(F)c3)nn12 [X-49] | > 9.34 µM
0.04 µM | CCOC(=O)N1CCC(NC(=O)c2cnc3ccc(N4CCC[C@@H]4c4cccc(F)c4)nn23)CC1 [X-50] | > 10 µM
0.067 µM | COCCNC(=O)c1cnc2ccc(N3CCC[C@@H]3c3cccc(F)c3)nn12 [X-51] | > 10 µM
0.058 µM | O=C(NCCN1CCOCC1)c1cnc2ccc(N3CCC[C@@H]3c3cccc(F)c3)nn12 [X-52] | > 10 µM
0.003 µM | O=C(NCC(F)(F)F)c1cnc2ccc(N3CCC[C@@H]3c3cccc(F)c3)nn12 [X-53] | > 10 µM
0.053 µM | COC[C@H](C)NC(=O)c1cnc2ccc(N3CCC[C@@H]3c3cccc(F)c3)nn12 [X-54] | > 10 µM
0.007 µM | CCNC(=O)c1cnc2ccc(N3CCC[C@@H]3c3cccc(F)c3)nn12 [X-55] | > 9.62 µM
0.676 µM | CN(C)CCNC(=O)c1cnc2ccc(N3CCC[C@@H]3c3cccc(F)c3)nn12 [X-56] | > 10 µM
0.19 µM | O=C(NCc1ccc(Cl)nc1)c1cnc2ccc(N3CCC[C@@H]3c3cccc(F)c3)nn12 [X-57] | > 10 µM
0.39 µM | O=C(NCCCN1CCOCC1)c1cnc2ccc(N3CCC[C@@H]3c3cccc(F)c3)nn12 [X-58] | > 10 µM
0.036 µM | O=C(NC1CCSCC1)c1cnc2ccc(N3CCC[C@@H]3c3cccc(F)c3)nn12 [X-59] | > 10 µM
0.035 µM | O=C(NCC(F)(F)C(F)(F)F)c1cnc2ccc(N3CCC[C@H]3c3cccc(F)c3)nn12 [X-60] | > 10 µM
0.144 µM | CC(C)(C)OC(=O)N1CC(NC(=O)c2cnc3ccc(N4CCC[C@@H]4c4cccc(F)c4)nn23)C1 [X-61] | > 10 µM

IC50 [1] | Structure (SMILES) | IC50 (parental Ba/F3 cells)
0.91 µM | CC(C)(C)OC(=O)N1CC[C@@H](NC(=O)c2cnc3ccc(N4CCC[C@@H]4c4cccc(F)c4)nn23)C1 [X-62] | > 10 µM
0.06 µM | CC(C)(C)OC(=O)N1CCC(NC(=O)c2cnc3ccc(N4CCC[C@@H]4c4cccc(F)c4)nn23)CC1 [X-63] | > 10 µM
0.832 µM | CC(=O)N1CC(NC(=O)c2cnc3ccc(N4CCC[C@@H]4c4cccc(F)c4)nn23)C1 [X-64] | > 10 µM
0.092 µM | N#Cc1cccc(NC(=O)c2cnc3ccc(N4CCC[C@@H]4c4cccc(F)c4)nn23)c1 [X-65, (R)-N-(3-cyanophenyl)-6-(2-(3-fluorophenyl)pyrrolidin-1-yl)imidazo[1,2-b]pyridazine-3-carboxamide] | > 9.51 µM
0.737 µM | CC(=O)N1CC[C@@H](NC(=O)c2cnc3ccc(N4CCC[C@@H]4c4cccc(F)c4)nn23)C1 [X-66] | > 10 µM
0.081 µM | CC(=O)N1CCC(NC(=O)c2cnc3ccc(N4CCC[C@@H]4c4cccc(F)c4)nn23)CC1 [X-67] | > 10 µM
0.038 µM | CS(=O)(=O)N1CC(NC(=O)c2cnc3ccc(N4CCC[C@@H]4c4cccc(F)c4)nn23)C1 [X-68] | > 10 µM
0.104 µM | O=C(NCc1ccccc1F)c1cnc2ccc(N3CCC[C@@H]3c3cccc(F)c3)nn12 [X-69] | > 10 µM
0.293 µM | CS(=O)(=O)N1CC[C@@H](NC(=O)c2cnc3ccc(N4CCC[C@@H]4c4cccc(F)c4)nn23)C1 [X-70] | > 10 µM
0.022 µM | CS(=O)(=O)N1CCC(NC(=O)c2cnc3ccc(N4CCC[C@@H]4c4cccc(F)c4)nn23)CC1 [X-71, (R)-6-(2-(3-fluorophenyl)pyrrolidin-1-yl)-N-(1-(methylsulfonyl)piperidin-4-yl)imidazo[1,2-b]pyridazine-3-carboxamide] | > 10 µM
0.109 µM | CC(=O)OCC(=O)N1CCC(NC(=O)c2cnc3ccc(N4CCC[C@@H]4c4cccc(F)c4)nn23)CC1 [X-73, (R)-2-(4-(6-(2-(3-fluorophenyl)pyrrolidin-1-yl)imidazo[1,2-b]pyridazine-3-carboxamido)piperidin-1-yl)-2-oxoethyl acetate] | > 10 µM
0.07 µM | O=C(NCc1cccc(F)c1)c1cnc2ccc(N3CCC[C@@H]3c3cccc(F)c3)nn12 [X-74] | > 10 µM
0.098 µM | O=C(NC1CCN(C(=O)CO)CC1)c1cnc2ccc(N3CCC[C@@H]3c3cccc(F)c3)nn12 [X-75, (R)-6-(2-(3-fluorophenyl)pyrrolidin-1-yl)-N-(1-(2-hydroxyacetyl)piperidin-4-yl)imidazo[1,2-b]pyridazine-3-carboxamide] | > 10 µM
0.034 µM | O=C(NCCC(F)(F)F)c1cnc2ccc(N3CCC[C@@H]3c3cccc(F)c3)nn12 [X-76] | > 10 µM
0.548 µM | CCn1nccc1NC(=O)c1cnc2ccc(N3CCC[C@@H]3c3cccc(F)c3)nn12 [X-77] | > 10 µM
0.061 µM | O=C(NCCO)c1cnc2ccc(N3CCC[C@@H]3c3cccc(F)c3)nn12 [X-79] | > 10 µM
0.006 µM | O=C(N[C@H]1CC[C@@H](O)CC1)c1cnc2ccc(N3CCC[C@@H]3c3cccc(F)c3)nn12 [X-80] | > 10 µM
0.012 µM | O=C(N[C@@H]1CCC[C@H]1O)c1cnc2ccc(N3CCC[C@@H]3c3cccc(F)c3)nn12 [X-81] | > 10 µM
0.089 µM | O=C(N[C@H]1CCCC[C@@H]1O)c1cnc2ccc(N3CCC[C@@H]3c3cccc(F)c3)nn12 [X-82] | > 10 µM
0.02 µM | CC(C)(CO)NC(=O)c1cnc2ccc(N3CCC[C@@H]3c3cccc(F)c3)nn12 [X-83] | > 10 µM

IC50 [1] | Structure (SMILES) | IC50 (parental Ba/F3 cells)
0.03 µM | O=C(NC[C@H]1CCCO1)c1cnc2ccc(N3CCC[C@@H]3c3cccc(F)c3)nn12 [X-84] | > 10 µM
0.054 µM | O=C(NC[C@@H]1CCCO1)c1cnc2ccc(N3CCC[C@@H]3c3cccc(F)c3)nn12 [X-85] | > 10 µM
0.191 µM | O=C(NCCN1CCCC1=O)c1cnc2ccc(N3CCC[C@@H]3c3cccc(F)c3)nn12 [X-86] | > 10 µM
0.076 µM | COC(=O)N[C@@H](C)CNC(=O)c1cnc2ccc(N3CCC[C@@H]3c3cccc(F)c3)nn12 [X-87] | > 10 µM
0.053 µM | O=C(NC1CCS(=O)(=O)C1)c1cnc2ccc(N3CCC[C@@H]3c3cccc(F)c3)nn12 (some centres unmarked) [X-88] | > 10 µM
0.164 µM | N#Cc1ccc(CNC(=O)c2cnc3ccc(N4CCC[C@@H]4c4cccc(F)c4)nn23)cc1 [X-89] | > 10 µM
0.014 µM | O=C(NCC1CC1)c1cnc2ccc(N3CCC[C@@H]3c3cccc(F)c3)nn12 [X-90] | > 10 µM
0.289 µM | O=C(NCCC1CCCCC1)c1cnc2ccc(N3CCC[C@@H]3c3cccc(F)c3)nn12 [X-91] | 6.16 µM
0.01 µM | O=C(NC1CCOCC1)c1cnc2ccc(N3CCC[C@@H]3c3cccc(F)c3)nn12 [X-93] | > 10 µM
0.016 µM | CC(C)CNC(=O)c1cnc2ccc(N3CCC[C@@H]3c3cccc(F)c3)nn12 [X-94] | > 10 µM
0.118 µM | O=C(NCC1CCCCC1)c1cnc2ccc(N3CCC[C@@H]3c3cccc(F)c3)nn12 [X-95] | > 10 µM
0.007 µM | O=C(NCCF)c1cnc2ccc(N3CCC[C@@H]3c3cccc(F)c3)nn12 [X-96] | > 10 µM
0.008 µM | O=C(NC1CCCOC1)c1cnc2ccc(N3CCC[C@@H]3c3cccc(F)c3)nn12 (some centres unmarked) [X-97] | > 10 µM
0.354 µM | COC(=O)[C@@H](CO)NC(=O)c1cnc2ccc(N3CCC[C@@H]3c3cccc(F)c3)nn12 [X-98] | > 10 µM
0.731 µM | O=C(NCc1ccc(N2CC[C@@H](O)C2)nc1)c1cnc2ccc(N3CCC[C@@H]3c3cccc(F)c3)nn12 [X-99] | > 10 µM
0.027 µM | O=C(N[C@@H]1CCOC1=O)c1cnc2ccc(N3CCC[C@@H]3c3cccc(F)c3)nn12 [X-100] | > 10 µM
0.452 µM | O=C(NC(CO)(CO)CO)c1cnc2ccc(N3CCC[C@@H]3c3cccc(F)c3)nn12 [X-101] | > 10 µM
0.031 µM | CC(C)[C@H](CO)NC(=O)c1cnc2ccc(N3CCC[C@@H]3c3cccc(F)c3)nn12 [X-102] | > 10 µM
